Measurements published in patent US20030199017A1, “Method for releasing a product comprising chemical oxidation, method for detecting said product and uses thereof” (Proteus, priority 2000, published 2003).

Legend:
[1] = stability of the substrates / oxidation by periodate in the presence of BSA; type: physicochemical; details: aqueous media
Text: The oxidation of 1,2 diols and amino alcohols by periodate in an aqueous medium is a reaction that is well known to one skilled in the art. This reaction provides a purely chemical alternative for the conversion of alcohols into carbonyl groups in aqueous medium with a high chemoselectivity in the presence of other functional groups.
The substrates acetates 1, amide 5 and epoxide 6 are stable in the presence of periodate and BSA […] the aqueous media. […] Under optimized reaction conditions using 100 μm of substrate, 1 mmol of sodium periodate, 2 mg/ml of BSA in a borate buffer with a pH of 8.8, diol 2 is transformed into umbelliferone with a yield of 72% without observable secondary reactions. […] The oxidation of amino alcohol 6 takes place with a yield of 85% under the same conditions.

[2] = negative control without enzyme, temperature series (para-nitrophenol released from the substrate); type: physicochemical; details: PIPES buffer 0.1 M pH 7, 40 minutes, no enzyme
Method: (§1) 74 μl of PIPES buffer (100 mmol, pH 7) and 10 μl of a lipase solution at 0.01 mg/ml are added to 13.6 μmol of 2-hydroxy-4-p-nitrophenyl-butyl-decanoate. The reaction is incubated in a water bath for 40 minutes at 50, 60, 70, 80 and 95° C. The samples are then removed from the water bath. Then, 40 μl of NaIO4 (100 mmol) and 4 μl of BSA (50 mg/ml) are added to the mixture. The pH of the solution is then adjusted to 10 by adding 40 μl of an Na2CO3 solution at 0.2 M. The para-nitrophenol that is released is then measured with a colorimeter at 414 nm.
A negative control without enzyme was carried out under the same experimental conditions.
(§2) 74 μl of PIPES buffer (100 mmol, pH 7) and 10 μl of a lipase solution at 0.01 mg/ml are added to 13.6 μmol of para-nitrophenylbutyrate. The reaction is incubated in a water bath for 40 minutes at 50, 60, 70, 80 and 95° C. The samples are then removed from the water bath, and the pH of the solution is adjusted to 10 with a 0.2 M Na2CO3 solution. The released para-nitrophenol is then measured with a calorimeter at 414 nm.
(§3) The activity of the lipase based on the incubation temperature was measured by using 2-hydroxy-4-p-nitrophenyl-butyl-decanoate and the para-nitrophenylbutyrate commercial substrate. […] The activities are expressed in %. The enzymatic reactions were carried out in the PIPES buffer (0.1 M, pH 7) at 50, 60, 70, 80 and 95° C. for 40 minutes. A negative control without enzyme was also carried out by using the same experimental conditions.

[3] = molecular target: T1, Candida antarctica lipase (Moesziomyces antarcticus, UniProt P41365); assay: Candida antarctica lipase activity based on temperature (release of para-nitrophenol, colorimetry at 414 nm); type: biochemical; details: PIPES buffer 0.1 M pH 7, 40 minutes
T1 sequence (P41365 26-342): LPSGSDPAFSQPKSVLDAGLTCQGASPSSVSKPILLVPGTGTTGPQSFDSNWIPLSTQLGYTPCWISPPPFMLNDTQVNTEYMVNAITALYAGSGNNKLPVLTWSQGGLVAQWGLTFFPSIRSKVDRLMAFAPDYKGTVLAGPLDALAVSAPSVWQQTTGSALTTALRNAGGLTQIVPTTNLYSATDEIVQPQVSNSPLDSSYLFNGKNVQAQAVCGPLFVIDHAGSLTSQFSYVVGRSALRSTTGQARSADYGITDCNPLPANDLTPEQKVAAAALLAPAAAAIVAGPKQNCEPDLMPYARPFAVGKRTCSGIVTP
Method: (§4) The hydrolytic activity of the Candida antarctica lipase was tested on 2 substrates: 2-hydroxy-4-p-nitrophenyl-butyl-decanoate and p-nitro-phenylbutyrate. The lipase activity is detected after hydrolysis of ester functions of substrates that produce the release (direct or indirect) of yellow-colored para-nitrophenol that is measured by colorimetry at 414 nm. The tests were carried out at different temperatures and pH.
(§5) The stock solutions of 2-hydroxy-4-p-nitrophenyl-butyl-decanoate and para-nitrophenolbutyrate (SIGMA) are prepared at the concentration of 20 mmol respectively in acetonitrile and isopropanol. The concentration of lipase B that is used is 0.01 mg/ml in a phosphate buffer (100 mmol, pH 7).
as §1, §2, §3

[4] = negative control without enzyme, pH series (para-nitrophenol released from the substrate); type: physicochemical; details: 40 minutes, no enzyme
Method: (§6) 74 μl of buffer at the desired pH (100 mmol) and 10 μl of a lipase solution at 0.01 mg/ml are added to 13.6 μmol of para-nitrophenylbutyrate. The reaction is incubated in a water bath for 40 minutes at 60° C. The samples are then removed from the water bath, and the pH of the solution is adjusted to 10 with a 0.2 M Na2CO3 solution. The para-nitrophenol that is released is then measured with a colorimeter at 414 nm.
(§7) The hydrolytic activity of the lipase based on the pH of the solution was also measured. […] The activities are expressed in %. The enzymatic reactions were incubated at 60° C. for 40 minutes at pH 3, 4, 5, 6.5, 7 and 8. A negative control without enzyme was also carried out by using the same experimental conditions.

[5] = molecular target: T1, Candida antarctica lipase; assay: Candida antarctica lipase activity based on the pH of the solution (release of para-nitrophenol, 414 nm); type: biochemical; details: 40 minutes
Method: as §4, §5
The enzymatic activity of the Candida antarctica lipase was carried out at different pH levels by using buffers (100 mmol) listed in Table VII below.
74 μl of buffer at the desired pH (100 mmol) and 10 μl of a lipase solution at 0.01 mg/ml are added to 13.6 μmol of 2-hydroxy-4-p-nitrophenyl-butyl-decanoate. The reaction is incubated in a water bath for 40 minutes at 60° C. The samples are then removed from the water bath. Then, 40 μl of NaIO4 (100 mmol) and 4 μl of BSA (50 mg/ml) are added to the mixture. The pH of the solution is then adjusted to 10 by adding 40 μl of a solution of Na2CO3 at 0.2 M. The para-nitrophenol that is released is then measured with a calorimeter at 414 nm.
as §6, §7

Structure (SMILES) | stability in the presence of periodate and BSA [1] | activity signal Without enzyme ([2]; 50° C.) [%] | activity signal Without enzyme ([2]; 60° C.) [%] | activity signal Without enzyme ([2]; 70° C.) [%] | activity signal Without enzyme ([2]; 80° C.) [%] | activity signal Without enzyme ([2]; 95° C.) [%] | activity of the Candida antarctica lipase (Lipase B) ([3]; 50° C.) [%] | activity of the Candida antarctica lipase (Lipase B) ([3]; 60° C.) [%] | activity of the Candida antarctica lipase (Lipase B) ([3]; 70° C.) [%] | activity of the Candida antarctica lipase (Lipase B) ([3]; 80° C.) [%] | activity of the Candida antarctica lipase (Lipase B) ([3]; 95° C.) [%] | activity signal Without enzyme ([4]; pH 3, 60° C.) [%] | activity signal Without enzyme ([4]; pH 4, 60° C.) [%] | activity signal Without enzyme ([4]; pH 5, 60° C.) [%] | activity signal Without enzyme ([4]; pH 6.5, 60° C.) [%] | activity signal Without enzyme ([4]; pH 7, 60° C.) [%] | activity signal Without enzyme ([4]; pH 8, 60° C.) [%] | activity of the Candida antarctica lipase (Lipase B) ([5]; pH 3, 60° C.) [%] | activity of the Candida antarctica lipase (Lipase B) ([5]; pH 4, 60° C.) [%] | activity of the Candida antarctica lipase (Lipase B) ([5]; pH 5, 60° C.) [%] | further results
O=c1ccc2ccc(OCC[C@H](O)CO)cc2o1 [diol 2, (S)-4-(7-coumarinyloxy)-1,2-butanediol] | release umbelliferone |  |  |  |  |  |  |  |  |  |  |  |  |  |  |  |  |  |  |  | 
CCCCCCCCCC(=O)OCC(O)CCc1ccc([N+](=O)[O-])cc1 (stereo not drawn) [2-hydroxy-4-p-nitrophenyl-butyl-decanoate] |  | 8.7 | 9.4 | 9.5 | 8.1 | 8.6 | 100 | 75.9 | 61.5 | 44.2 | 26.1 | 3.9 | 2.7 | 2.6 | 2.9 | 3.4 | 2.8 | 58.9 | 80.9 | 96.1 | activity of the Candida antarctica lipase (Lipase B) ([5]; pH 6.5, 60° C.): 100%; activity of the Candida antarctica lipase (Lipase B) ([5]; pH 7, 60° C.): 72%; activity of the Candida antarctica lipase (Lipase B) ([5]; pH 8, 60° C.): 40%
O=c1ccc2ccc(OCC[C@H]3CO3)cc2o1 [epoxide 6, (S)-4-(7-coumarinyloxy)-1,2-epoxybutane] | stable |  |  |  |  |  |  |  |  |  |  |  |  |  |  |  |  |  |  |  | 
CCCC(=O)Oc1ccc([N+](=O)[O-])cc1 [p-Nitrophenylbutyrate, p-nitro-phenylbutyrate, reference compound] |  | 83.6 | 67.3 | 59.5 | 59.8 | 71.5 | 100 | 75.4 | 60.4 | 55.9 | 66.7 | 54.9 | 63.6 | 65.6 | 69.2 | 51.4 | 103.9 | 94.2 | 73 | 100 | activity of the Candida antarctica lipase (Lipase B) ([5]; pH 6.5, 60° C.): 79.5%; activity of the Candida antarctica lipase (Lipase B) ([5]; pH 7, 60° C.): 60.8%; activity of the Candida antarctica lipase (Lipase B) ([5]; pH 8, 60° C.): 103.9%
NCC(O)CCOc1ccc2ccc(=O)oc2c1 (stereo not drawn) [amino alcohol 6, 1-Amino-4-(7-coumarinyloxy)-2-butanol] | release umbelliferone |  |  |  |  |  |  |  |  |  |  |  |  |  |  |  |  |  |  |  | 
O=C(Cc1ccccc1)NCC(O)CCOc1ccc2ccc(=O)oc2c1 (stereo not drawn) [amide 5, 1-Phenylacetamido-4-(7-coumarinyloxy)-2-butanol] | stable |  |  |  |  |  |  |  |  |  |  |  |  |  |  |  |  |  |  |  | 
